Results published in patent US9260425B2 (Genetech, Inc., priority 2011, dated 2016).

Target: Pim-1 (Homo sapiens (Human), UniProt P11309)
Assay: Pim kinase binding activity assay (Example 901), PIM-1 enzyme, Caliper microfluidic peptide phosphorylation
Format: biochemical
Details: 20 pM PIM-1, 10 μM ATP, 1 μM FAM-peptide, 90 minutes at room temperature
In short: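 The readout was microfluidic mobility-shift separation of a FAM-tagged Pim-specific peptide, excited at 488 nm and read at 530 nm, with Ki calculated from percent conversion. Reactions held 20 pM PIM-1, 1 μM peptide and 10 μM ATP in pH 7.2 HEPES/MgCl2/DTT buffer, ran 90 min at room temperature and were stopped with EDTA.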

Sequence of Pim-1 (P11309 whole entry): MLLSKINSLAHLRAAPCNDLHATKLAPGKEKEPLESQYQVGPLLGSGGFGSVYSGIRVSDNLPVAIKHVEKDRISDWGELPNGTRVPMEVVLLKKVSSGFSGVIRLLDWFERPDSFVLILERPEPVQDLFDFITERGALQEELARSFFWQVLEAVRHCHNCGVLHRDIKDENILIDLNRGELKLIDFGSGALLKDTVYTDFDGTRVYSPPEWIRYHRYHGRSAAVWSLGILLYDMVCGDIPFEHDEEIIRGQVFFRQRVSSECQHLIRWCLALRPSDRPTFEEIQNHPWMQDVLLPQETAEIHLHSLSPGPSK

Structure (SMILES)	Ki
CCn1cc(-c2cc3c(-c4cccc(N5CCNC(C(F)(F)F)C5)n4)n[nH]c3cn2)cn1 (stereo not drawn) [Example 468, 5-(1-ethyl-1H-pyrazol-4-yl)-3-(6-(3-(trifluoromethyl)piperazin-1-yl)pyridin-2-yl)-1H-pyrazolo[3,4-c]pyridine]	0.06 nM
Fc1ccccc1-c1n[nH]c2cnc(-c3cn[nH]c3)cc12 [Example 136, 3-(2-fluorophenyl)-5-(1H-pyrazol-4-yl)-1H-pyrazolo[3,4-c]pyridine]	8.69 nM
FC(F)(F)c1cncc(-c2cc3c(-c4cccc(N5CCNCC5)n4)n[nH]c3cn2)c1 [Example 467, 3-(6-(piperazin-1-yl)pyridin-2-yl)-5-(5-(trifluoromethyl)pyridin-3-yl)-1H-pyrazolo[3,4-c]pyridine]	0.093 nM
c1cc(-c2n[nH]c3cnc(C4CCCOC4)cc23)nc(N2CCNCC2)c1 (stereo not drawn) [Example 181, 3-(6-(piperazin-1-yl)pyridin-2-yl)-5-(tetrahydro-2H-pyran-3-yl)-1H-pyrazolo[3,4-c]pyridine]	3.96 nM
N[C@H]1CCN(c2ccc(-c3n[nH]c4cnc(-c5cccnc5)cc34)cn2)C1 [Example 202, (S)-1-(5-(5-(pyridin-3-yl)-1H-pyrazolo[3,4-c]pyridin-3-yl)pyridin-2-yl)pyrrolidin-3-amine]	1 nM
Cc1ccc(-c2n[nH]c3cnc(-c4cccnc4)cc23)nc1N1CC[C@H](N)C1 [Example 317, (S)-1-(3-methyl-6-(5-(pyridin-3-yl)-1H-pyrazolo[3,4-c]pyridin-3-yl)pyridin-2-yl)pyrrolidin-3-amine]	0.059 nM
Cc1ccc(-c2n[nH]c3cnc(-c4cccnc4)cc23)nc1N1CC(N2CCNC(=O)C2)C1 [Example 426, 4-(1-(3-methyl-6-(5-(pyridin-3-yl)-1H-pyrazolo[3,4-c]pyridin-3-yl)pyridin-2-yl)azetidin-3-yl)piperazin-2-one]	0.46 nM
CCc1ccc(-c2n[nH]c3cnc(-c4cccnc4)cc23)nc1N1CCC[C@H](N)C1 [Example 327, (S)-1-(3-ethyl-6-(5-(pyridin-3-yl)-1H-pyrazolo[3,4-c]pyridin-3-yl)pyridin-2-yl)piperidin-3-amine]	0.035 nM
C#Cc1ccc(-c2n[nH]c3cnc(-c4cccnc4)cc23)nc1N1CCC[C@H](N)C1 [Example 342, (S)-1-(3-ethynyl-6-(5-(pyridin-3-yl)-1H-pyrazolo[3,4-c]pyridin-3-yl)pyridin-2-yl)piperidin-3-amine]	0.01 nM
NCC[C@H]1CCCN(c2cccc(-c3n[nH]c4cnc(-c5cccnc5)cc34)n2)C1 [Example 237, (R)-2-(1-(6-(5-(pyridin-3-yl)-1H-pyrazolo[3,4-c]pyridin-3-yl)pyridin-2-yl)piperidin-3-yl)ethanamine]	0.042 nM
C=C(C)c1ccc(-c2n[nH]c3cnc(-c4cccnc4)cc23)nc1N1CCC[C@H](N)C1 [Example 308, (S)-1-(3-(prop-1-en-2-yl)-6-(5-(pyridin-3-yl)-1H-pyrazolo[3,4-c]pyridin-3-yl)pyridin-2-yl)piperidin-3-amine]	0.01 nM
Fc1ccccc1-c1n[nH]c2cnc(-c3cnccc3OC3CNC3)cc12 [Example 198, 5-(4-(azetidin-3-yloxy)pyridin-3-yl)-3-(2-fluorophenyl)-1H-pyrazolo[3,4-c]pyridine]	3.12 nM
c1cc(-c2n[nH]c3cnc(-c4cncs4)cc23)nc(N2CCNCC2)c1 [Example 359, 5-(3-(6-(piperazin-1-yl)pyridin-2-yl)-1H-pyrazolo[3,4-c]pyridin-5-yl)thiazole]	0.074 nM
Cc1ccc(-c2n[nH]c3cnc(-c4cnn(C)c4)cc23)nc1N1C[C@@H](N)C[C@@H](F)C1 [Example 509, (3S,5R)-5-fluoro-1-(3-methyl-6-(5-(1-methyl-1H-pyrazol-4-yl)-1H-pyrazolo[3,4-c]pyridin-3-yl)pyridin-2-yl)piperidin-3-amine]	0.056 nM
COc1ccc(F)c(-c2n[nH]c3cnc(-c4cnn(C)c4)cc23)c1 [Example 172, 3-(2-fluoro-5-methoxyphenyl)-5-(1-methyl-1H-pyrazol-4-yl)-1H-pyrazolo[3,4-c]pyridine]	3.76 nM
FCCn1cc(-c2cc3c(-c4cccc(N5CCCNCC5)n4)n[nH]c3cn2)cn1 [Example 489, 3-(6-(1,4-diazepan-1-yl)pyridin-2-yl)-5-(1-(2-fluoroethyl)-1H-pyrazol-4-yl)-1H-pyrazolo[3,4-c]pyridine]	0.014 nM
CCn1cc(-c2cc3c(-c4cc(C#N)cc(N5CCCNCC5)n4)n[nH]c3cn2)cn1 [Example 490, 2-(1,4-diazepan-1-yl)-6-(5-(1-ethyl-1H-pyrazol-4-yl)-1H-pyrazolo[3,4-c]pyridin-3-yl)isonicotinonitrile]	0.107 nM
CCn1cc(-c2cc3c(-c4ccc(Br)c(N5CCC[C@H](N)C5)n4)n[nH]c3cn2)cn1 [Example 403, (S)-1-(3-bromo-6-(5-(1-ethyl-1H-pyrazol-4-yl)-1H-pyrazolo[3,4-c]pyridin-3-yl)pyridin-2-yl)piperidin-3-amine]	0.04 nM
c1cc(-c2n[nH]c3cnc(-c4cnn(CC5COC5)c4)cc23)nc(N2CCNCC2)c1 [Example 416, 5-(1-(oxetan-3-ylmethyl)-1H-pyrazol-4-yl)-3-(6-(piperazin-l-yl)pyridin-2-yl)-1H-pyrazolo[3,4-c]pyridine]	11.3 nM
CC(C)c1ccc(-c2n[nH]c3cnc(-c4cccnc4)cc23)nc1N1CCC[C@H](N)C1 [Example 328, (S)-1-(3-isopropyl-6-(5-(pyridin-3-yl)-1H-pyrazolo[3,4-c]pyridin-3-yl)pyridin-2-yl)piperidin-3-amine]	0.046 nM
N[C@H]1CCCN(c2cccc(-c3n[nH]c4cnc(-n5ccnc5)cc34)n2)C1 [Example 380, (S)-1-(6-(5-(1H-imidazol-1-yl)-1H-pyrazolo[3,4-c]pyridin-3-yl)pyridin-2-yl)piperidin-3-amine]	0.523 nM
N[C@H]1CCCN(c2ccc(-c3n[nH]c4cnc(-c5cccnc5)cc34)cn2)C1 [Example 196, (S)-1-(5-(5-(pyridin-3-yl)-1H-pyrazolo[3,4-c]pyridin-3-yl)pyridin-2-yl)piperidin-3-amine]	0.774 nM
c1ccc(-c2n[nH]c3cnc(-n4cncn4)cc23)cc1 [Example 142, 3-phenyl-5-(1H-1,2,4-triazol-1-yl)-1H-pyrazolo[3,4-c]pyridine]	306 nM
CCn1cc(-c2cc3c(-c4cccc(N5CCNC(C(F)(F)F)CC5)n4)n[nH]c3cn2)cn1 (stereo not drawn) [Example 491, 5-(1-ethyl-1H-pyrazol-4-yl)-3-(6-(5-(trifluoromethyl)-1,4-diazepan-1-yl)pyridin-2-yl)-1H-pyrazolo[3,4-c]pyridine]	0.181 nM
c1cncc(-c2cc3c(-c4cnn(C5CCNCC5)c4)n[nH]c3cn2)c1 [Example 175, 3-(1-(piperidin-4-yl)-1H-pyrazol-4-yl)-5-(pyridin-3-yl)-1H-pyrazolo[3,4-c]pyridine]	0.3 nM
N[C@@H]1CCCN(c2nc(-c3n[nH]c4cnc(-c5cccnc5)cc34)ccc2Br)C1 [Example 290, (R)-1-(3-bromo-6-(5-(pyridin-3-yl)-1H-pyrazolo[3,4-c]pyridin-3-yl)pyridin-2-yl)piperidin-3-amine]	0.082 nM
C[C@]1(N)CCCN(c2cccc(-c3n[nH]c4cnc(-c5cccnc5)cc34)n2)C1 [Example 343, (S)-3-methyl-1-(6-(5-(pyridin-3-yl)-1H-pyrazolo[3,4-c]pyridin-3-yl)pyridin-2-yl)piperidin-3-amine]	0.045 nM
